Test results taken from patent US20010044459A1, “Hydroxamic acid derivatives” (priority 1997, published 2001).
Where a SMILES comes first, the peptide text is derived from it.

Columns and labels:
cortical cell cultures = assay: In vitro toxicity of NAAG (LDH release); assay type: cell-based, rats; details: NAAG 3 μM for 20 minutes
Experimental: Experiments are performed after 21 days in cultures.
At the end of exposure, the cells are washed once with HEPES buffered saline solution and then replaced with serum free modified Earle's basal medium. The cultures are then returned to the CO2 incubator for 24 hour recovery.
This control measurement is subtracted from each experimental point.

NAALADase [1] = biological target: NAALADase (Homo sapiens, UniProt Q04609); details: read-out: Km of NAALADase for NAAG; NAAG as substrate; cited from earlier work
Chain of NAALADase (Homo sapiens, UniProt Q04609) (Q04609 whole entry): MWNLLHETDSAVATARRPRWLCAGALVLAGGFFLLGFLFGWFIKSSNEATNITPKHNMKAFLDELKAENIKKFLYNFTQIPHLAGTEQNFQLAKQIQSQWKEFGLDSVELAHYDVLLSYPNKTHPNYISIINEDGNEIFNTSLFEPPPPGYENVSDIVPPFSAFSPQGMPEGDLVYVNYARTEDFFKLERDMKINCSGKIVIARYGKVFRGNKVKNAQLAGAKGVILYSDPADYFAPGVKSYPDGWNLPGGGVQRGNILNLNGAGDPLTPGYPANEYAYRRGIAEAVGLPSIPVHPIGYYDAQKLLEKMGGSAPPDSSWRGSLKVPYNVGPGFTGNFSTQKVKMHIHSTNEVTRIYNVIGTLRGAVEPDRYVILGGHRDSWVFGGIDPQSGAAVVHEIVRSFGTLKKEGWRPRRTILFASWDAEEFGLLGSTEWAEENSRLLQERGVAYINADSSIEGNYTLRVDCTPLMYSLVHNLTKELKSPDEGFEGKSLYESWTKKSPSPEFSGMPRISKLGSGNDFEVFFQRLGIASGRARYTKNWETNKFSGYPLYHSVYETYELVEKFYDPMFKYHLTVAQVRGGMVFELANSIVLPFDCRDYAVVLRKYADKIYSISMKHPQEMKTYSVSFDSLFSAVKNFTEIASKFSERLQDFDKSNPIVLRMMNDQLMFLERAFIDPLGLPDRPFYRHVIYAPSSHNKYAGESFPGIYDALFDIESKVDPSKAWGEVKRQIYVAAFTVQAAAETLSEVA

NAALADase [2] = biological target: NAALADase (Rattus norvegicus, UniProt P70627); assay: In vitro assay of NAALADase activity ([3H]Glu liberated from [3H]NAAG, synaptosomal protein); assay type: biochemical; details: compared with 2-(phosphonomethyl)pentanedioic acid
Chain of NAALADase (Rattus norvegicus, UniProt P70627) (P70627 whole entry): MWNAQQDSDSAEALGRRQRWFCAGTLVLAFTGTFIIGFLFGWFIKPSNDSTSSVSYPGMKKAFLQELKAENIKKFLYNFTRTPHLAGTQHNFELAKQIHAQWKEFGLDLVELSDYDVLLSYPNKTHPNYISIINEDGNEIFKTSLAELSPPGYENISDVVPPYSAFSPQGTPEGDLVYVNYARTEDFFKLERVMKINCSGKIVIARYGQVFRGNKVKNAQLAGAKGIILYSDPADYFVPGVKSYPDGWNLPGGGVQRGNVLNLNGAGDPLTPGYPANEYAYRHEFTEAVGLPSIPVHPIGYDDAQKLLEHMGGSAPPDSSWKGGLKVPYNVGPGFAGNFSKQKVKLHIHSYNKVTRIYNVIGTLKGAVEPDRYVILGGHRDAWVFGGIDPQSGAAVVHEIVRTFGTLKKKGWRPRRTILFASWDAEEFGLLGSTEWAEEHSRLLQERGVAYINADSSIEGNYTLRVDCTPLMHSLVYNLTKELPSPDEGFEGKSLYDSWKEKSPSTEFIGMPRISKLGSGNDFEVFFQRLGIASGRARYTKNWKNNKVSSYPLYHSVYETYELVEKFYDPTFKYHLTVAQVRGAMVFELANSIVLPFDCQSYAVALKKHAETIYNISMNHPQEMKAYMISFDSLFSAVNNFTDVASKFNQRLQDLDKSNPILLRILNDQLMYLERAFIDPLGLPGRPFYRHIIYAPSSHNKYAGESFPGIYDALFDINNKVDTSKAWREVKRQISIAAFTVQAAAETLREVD
Experimental: Substrate and product were resolved by anion-exchange liquid chromatography. […] Quisqualate (100 μM) was included in parallel assay tubes to confirm the specificity of the measurements.

| Compound | % Toxicity (cortical cell cultures) [%] | Km (NAALADase [1]) [µM] | NAALADase inhibiting activity (in words, by comparison) (NAALADase [2]) |
| --- | --- | --- | --- |
| CC(=O)N[C@@H](CC(=O)O)C(=O)N[C@@H](CCC(=O)O)C(=O)O [NAAG, N-acetyl-aspartyl-glutamate] (Ac-Asp-Glu-OH) | 3.51 | 0.54 |  |
| O=C(O)CC(CP(=O)(O)O)C(=O)O (stereo not shown) [2-(phosphonomethyl)succinic acid] |  |  | much lower NAALADase inhibiting activity |
| O=C(O)CCC(CP(=O)(O)CCC(=O)O)C(=O)O (stereo not shown) [2-[[2-carboxyethyl)hydroxyphosphinol]methyl]pentanedioic acid] |  |  | lower NAALADase inhibiting activity |
